Results from BindingDB's records for doi:10.1021/jm801327q (Cnrs, 2009).

How the values were obtained:
[1] = target: 5-hydroxytryptamine receptor 4 (Homo sapiens, UniProt Q13639); assay: Radioligand Binding Assay (Ki) and cAMP Accumulation Assay (EC50); conditions: pH 7.4; 25 °C
Method: Nonspecific binding was determined with 10 uM GR113808. After incubation, the reaction was terminated by filtration through Whatman GF/B. Radioactivity was measured using a Beckman model LS6500C liquid scintillation counter. Binding data are expressed as a percentage of displacement for the screening of the library compounds. For selected compounds, Ki were analyzed by computer-assisted nonlinear regression analysis (Prism, Graphpad Software, San Diego, CA). EC50 values correspond to the concentration of agonists required to obtain half maximal stimulation of adenylyl cyclase. […] The data are the results of two or three independent determinations performed in triplicate.

[2] = target: Amyloid-beta precursor protein (Homo sapiens) (UniProt P05067); assay: EC/IC50 was the effective concentration of agonist inhibiting the formation of A-beta fibrils to 50% of the control value. Three independent measurements were made for all cases.
Sequence of Amyloid-beta precursor protein (Homo sapiens) (P05067 whole entry, looked up): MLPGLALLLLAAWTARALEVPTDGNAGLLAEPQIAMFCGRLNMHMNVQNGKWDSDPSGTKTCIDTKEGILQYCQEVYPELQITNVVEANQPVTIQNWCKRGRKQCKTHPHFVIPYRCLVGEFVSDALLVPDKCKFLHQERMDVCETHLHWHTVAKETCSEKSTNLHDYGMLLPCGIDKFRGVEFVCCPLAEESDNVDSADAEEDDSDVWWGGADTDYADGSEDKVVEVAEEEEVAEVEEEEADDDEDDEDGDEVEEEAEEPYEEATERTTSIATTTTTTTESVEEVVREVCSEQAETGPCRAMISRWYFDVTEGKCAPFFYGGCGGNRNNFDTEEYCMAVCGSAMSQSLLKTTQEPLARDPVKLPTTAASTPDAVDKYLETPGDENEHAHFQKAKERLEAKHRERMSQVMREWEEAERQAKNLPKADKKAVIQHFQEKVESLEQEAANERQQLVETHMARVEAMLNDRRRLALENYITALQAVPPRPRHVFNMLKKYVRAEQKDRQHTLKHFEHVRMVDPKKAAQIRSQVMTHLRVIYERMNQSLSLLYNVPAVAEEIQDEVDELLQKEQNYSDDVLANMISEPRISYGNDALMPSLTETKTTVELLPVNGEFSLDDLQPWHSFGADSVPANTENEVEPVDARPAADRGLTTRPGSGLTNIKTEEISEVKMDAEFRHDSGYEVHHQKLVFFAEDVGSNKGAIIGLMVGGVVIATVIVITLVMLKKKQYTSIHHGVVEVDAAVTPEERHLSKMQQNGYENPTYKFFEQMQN

Sequence of 5-hydroxytryptamine receptor 4 (Q13639 whole entry): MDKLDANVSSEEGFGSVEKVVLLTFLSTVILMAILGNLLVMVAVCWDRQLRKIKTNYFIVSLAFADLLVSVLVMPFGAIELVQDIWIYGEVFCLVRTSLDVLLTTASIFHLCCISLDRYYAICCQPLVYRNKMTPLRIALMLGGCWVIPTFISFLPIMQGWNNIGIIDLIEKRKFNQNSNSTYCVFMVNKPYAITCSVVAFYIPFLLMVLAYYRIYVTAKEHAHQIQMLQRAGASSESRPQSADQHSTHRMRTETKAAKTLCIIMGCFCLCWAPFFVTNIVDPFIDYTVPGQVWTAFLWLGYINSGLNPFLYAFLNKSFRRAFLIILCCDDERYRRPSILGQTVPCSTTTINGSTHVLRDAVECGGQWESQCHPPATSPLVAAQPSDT

| EC50 [1] [nM] | Ki [1] [nM] | EC50 [2] [µM] | SMILES |
| --- | --- | --- | --- |
| 4 | 111 |  | COc1cc(N)c(Cl)cc1C(=O)OCCN1CCC(NC(=O)CCCCCN2C(=O)c3cccc4c(N)ccc(c34)C2=O)CC1 [ML10302 scaffold, 9{a;y}] |
|  |  | 9 | COc1cc(N)c(Cl)cc1C(=O)OCCN1CCC(NC(=O)CCCNCCCc2ccc(CCCNCCCC(=O)NC3CCN(CCOC(=O)c4cc(Cl)c(N)cc4OC)CC3)cc2)CC1 [ML10302 scaffold, 14] |
